Data set [1] concerns human tumour cells. The settings on record: general statement on the colony test; cited from earlier work.
Data set [2] relates to HIV. The data set is described as follows: phorbol ester-induced HIV reactivation, viral protein p24 by ELISA. It is filed as cell-based. The settings on record: Human immunodeficiency virus 1; U1 cells, PMA stimulation; average value ± SD; n = 3; read-out: inhibition of the HIV production IC50, p24 expression. On the procedure: (§1) In the case of the establishment of this hypothesis, use was made of the promonocytic cell line U1.
(§2) Without stimulation, no formation of HIV can be measured in these cells but, after 15 minutes stimulation with the phorbol ester PMA, it results in a massive production of HIV.
(§3) Some of the PKC inhibitors according to the present invention were investigated in this model. As a measure for the HIV production, either with the help of an ELISA test there was determined the viral protein p24 or with the help of an indicator cell, there was measured the HIV-induced formation of syncytia (giant cells produced by the fusion of individual cells).
For orientation: ELISA stands for enzyme-linked immunosorbent assay.

The subject of data set [3] is human tumour cells, colon. The data set is described as follows: colony formation of human tumour cells: colon. In kind it is cell-based. The procedure:
(§4) For this test, human tumour cells are kept as solid tumour by passage on the nude mouse. For the test, an individual cell suspension is prepared and the cells then plated out in dishes containing soft agar. Under these conditions, the tumour cells multiply and form colonies.

Data set [4] concerns HIV. As to the kind of experiment: phorbol ester-induced HIV reactivation, HIV-induced syncytia formation with indicator cell. The settings on record: Human immunodeficiency virus 1; U1 cells, PMA stimulation; average value; n = 2; read-out: inhibition of the HIV production IC50, syncytia formation. In kind it is cell-based. The procedure: as §1, §2, §3
Data set [5] deals with human tumour cells, gastric 1. As to the kind of experiment: colony formation of human tumour cells: gastric 1. In kind it is cell-based. The procedure: as §4
A further data set deals with protein kinase C. As to the kind of experiment: inhibition of protein kinase C, enzyme test. It is filed as biochemical. The settings on record: read-out: inhibition of the protein kinases, C-kinase IC50. The procedure:
In order to ascertain whether it is a question of a selective inhibition of MLC kinase, the compounds were also investigated in other enzyme tests for protein kinase, including tests for protein kinase C. The results from the PKC test are also given in the following Table I. Furthermore, the Table contains selectivity factors which were calculated by the determination of the ratios of the IC50 values.

The subject of data set [6] is human tumour cells, melanoma 1. As to the kind of experiment: colony formation of human tumour cells: melanoma 1. In kind it is cell-based. On the procedure: as §4
In data set [7] the test system is human tumour cells, ovarian 3. The data set is described as follows: colony formation of human tumour cells: ovarian 3. In kind it is cell-based. On the procedure: as §4
Data set [8] relates to promonocytic cell line U1. As to the kind of experiment: control experiments for cytotoxic action in the HIV model. It is filed as cell-based.
The subject of data set [9] is human tumour cells, colorectal 1. As to the kind of experiment: colony formation of human tumour cells: colorectal 1. In kind it is cell-based. On the procedure: as §4
Data set [10] deals with human tumour cells, melanoma 3. The data set is described as follows: colony formation of human tumour cells: melanoma 3. It is filed as cell-based. On the procedure:
as §4

Data set [11] deals with human tumour cells, lung (small cell 1). The data set is described as follows: colony formation of human tumour cells: lung (small cell 1). It is filed as cell-based. The procedure: as §4
Data set [12] concerns human tumour cells, ovarian 2. The data set is described as follows: colony formation of human tumour cells: ovarian 2. In kind it is cell-based. The procedure: as §4
The subject of data set [13] is human tumour cells, pancreas 1. As to the kind of experiment: colony formation of human tumour cells: pancreas 1. It is filed as cell-based. On the procedure: as §4
Data set [14] concerns HIV. As to the kind of experiment: HIV production in PMA-stimulated promonocytic U1 cells (both methods). In kind it is cell-based. The settings on record: both test methods. The procedure:
as §1, §2, §3

The subject of data set [15] is human tumour cells. The data set is described as follows: colony test, human tumour cells in soft agar (tumour types in general). It is filed as cell-based. The settings on record: certain tumour types. On the procedure:
as §4

For data set [16], the system named is human tumour cells, ovarian 1. As to the kind of experiment: colony formation of human tumour cells: ovarian 1. It is filed as cell-based. On the procedure:
as §4

The test system of data set [17] is human tumour cells, prostata 1. As to the kind of experiment: colony formation of human tumour cells: prostata 1. In kind it is cell-based. On the procedure:
as §4

Data set [18] relates to human tumour cells, lung (large cell). As to the kind of experiment: colony formation of human tumour cells: lung (large cell). In kind it is cell-based. On the procedure: as §4
The target in data set [19] is T1, MLC kinase (myosin light-chain kinase) (Gallus gallus, UniProt P11799).
T1 construct: MLC kinase was purified from chicken stomach; from tissue; host or cells: chicken stomach (gizzard smooth muscle)
As to the kind of experiment: inhibition of MLC kinase, in vitro enzyme test (32P phosphate incorporation). It is filed as biochemical, chicken (stomach).
Description: Inhibition of the enzyme MLC kinase (EC 3.6.1.3; kinase of the light myosin chain; myosin light-chain kinase).
The inhibition of MLC kinase was measured in an in vitro enzyme test.
The reaction was initiated by the addition of 1 nM MLC kinase. After incubation for 20 minutes at 30° C., the reaction was stopped with TCA and the samples then filtered off. The phosphate incorporation took place by means of Cerenkov counting of the filter.

Data set [20] relates to human tumour cells, gastric 2. The data set is described as follows: colony formation of human tumour cells: gastric 2. In kind it is cell-based. On the procedure:
as §4

Data set [21] concerns human tumour cells, melanoma 2. The data set is described as follows: colony formation of human tumour cells: melanoma 2. In kind it is cell-based. On the procedure:
as §4

For data set [22] the following is noted: literature / other filings; cited from earlier work.
The test system of a further data set is protein kinases. The conditions noted are these: Bio/Technology, 1990, 8, 132-135; cited from earlier work.

A word on the IC50: it is the concentration needed to halve the response being measured. What is called inhibition is the change of the read-out against control, counted positive when it falls. High values mean a response far below the control, low ones a response near the control.

Bounds are passed on as bounds.

T1 sequence (P11799 935-1906): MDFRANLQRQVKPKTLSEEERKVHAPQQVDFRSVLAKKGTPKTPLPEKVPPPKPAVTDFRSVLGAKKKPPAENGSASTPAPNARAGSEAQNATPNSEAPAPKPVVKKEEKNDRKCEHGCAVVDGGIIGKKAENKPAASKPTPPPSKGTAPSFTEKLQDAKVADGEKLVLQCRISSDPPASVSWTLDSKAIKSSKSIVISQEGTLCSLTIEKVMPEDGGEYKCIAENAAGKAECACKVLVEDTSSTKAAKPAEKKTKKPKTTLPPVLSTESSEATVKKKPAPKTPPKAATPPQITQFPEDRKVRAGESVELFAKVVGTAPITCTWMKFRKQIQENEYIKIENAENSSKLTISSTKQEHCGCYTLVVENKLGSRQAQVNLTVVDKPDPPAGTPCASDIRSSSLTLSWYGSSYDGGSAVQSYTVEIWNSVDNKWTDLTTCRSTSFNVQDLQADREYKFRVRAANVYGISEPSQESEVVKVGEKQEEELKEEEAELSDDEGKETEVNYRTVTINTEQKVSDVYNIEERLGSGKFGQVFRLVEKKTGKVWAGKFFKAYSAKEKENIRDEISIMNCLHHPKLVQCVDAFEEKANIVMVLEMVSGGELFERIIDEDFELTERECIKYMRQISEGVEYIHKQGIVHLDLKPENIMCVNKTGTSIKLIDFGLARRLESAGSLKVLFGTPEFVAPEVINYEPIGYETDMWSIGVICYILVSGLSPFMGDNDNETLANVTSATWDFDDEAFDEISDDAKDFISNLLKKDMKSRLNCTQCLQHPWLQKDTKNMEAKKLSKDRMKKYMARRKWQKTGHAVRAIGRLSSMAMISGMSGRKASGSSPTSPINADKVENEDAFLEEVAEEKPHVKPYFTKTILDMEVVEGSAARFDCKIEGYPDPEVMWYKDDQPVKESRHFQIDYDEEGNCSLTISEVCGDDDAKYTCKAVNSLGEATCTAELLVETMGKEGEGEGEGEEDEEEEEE

Take `COc1cccc2c1C(=O)c1c(O)c3c(c(O)c1C2=O)C[C@@](O)(C(=O)CO)C[C@@H]3O[C@H]1C[C@H](N)[C@H](O)[C@H](C)O1` [adriamycin]: the “prevention of colony formation, in words” value with human tumour cells [1] is “able to prevent this colony formation”.

In the case of `CN(C)CCCn1c2ccc(O)cc2c2c3c(c4c5cc(O)ccc5[nH]c4c21)C(=O)NC3=O` [Example 2c], the IC50 came out at 36 ± 15 nM with HIV [2]; 1700 nM in [3]; 29 nM in the data set on HIV [4]; 1200 nM in data set [5]; 14 nM at protein kinase C; 120 nM in [6]. Further, the half-inhibitory concentration (IC50) in data set [7] is < 100 nM; in data set [9], 6000 nM; in data set [10] it was 210 nM; in data set [11], < 100 nM; in [12] it was 2600 nM; in data set [13] it was 1500 nM. For the same compound, the half-maximal inhibitory concentration (IC50) in data set [16] is 200 nM; in data set [17], 200 nM; in data set [18], < 100 nM; in [19] (1 nM MLC kinase, 250 μM ATP, pH 7.2, 20 minutes at 30° C., read-out: inhibition of the protein kinases, MLC-kinase IC50) it was 6.1 nM; in [20], < 100 nM; in [21], < 100 nM. Further, the inhibition at 10 µM in data set [3] (10^-5 M) was found to be 94%; in [5] (10^-5 M), 99%; in [6] (10^-5 M) it was 89%; in data set [7] (10^-5 M), 99%; in [9] (10^-5 M), 62%; in data set [10] (10^-5 M), 73%. Also, the inhibition at 10 µM worked out at 97% in data set [11] (10^-5 M); 75% in [12] (10^-5 M); 83% in [13] (10^-5 M); 96% in data set [16] (10^-5 M); 98% in data set [17] (10^-5 M); 100% in data set [18] (10^-5 M). Also, the inhibition at 10 µM was determined as 77% in [20] (10^-5 M) and 97% in data set [21] (10^-5 M). The inhibition at 1 µM stood at 37% in data set [3] (10^-6 M); 47% in [5] (10^-6 M); 81% in data set [6] (10^-6 M); 94% in data set [7] (10^-6 M); 8% in data set [9] (10^-6 M); 76% in data set [10] (10^-6 M). For the same compound, the inhibition at 1 µM in [11] (10^-6 M) was found to be 97%; in data set [12] (10^-6 M), 33%; in data set [13] (10^-6 M), 44%; in [16] (10^-6 M), 75%; in [17] (10^-6 M), 99%; in data set [18] (10^-6 M), 100%. Moreover, the inhibition at 1 µM is 66% in data set [20] (10^-6 M) and 99% in [21] (10^-6 M). The inhibition at 0.1 µM in data set [3] (10^-7 M) came out at 8%; in data set [5] (10^-7 M), 29%; in data set [6] (10^-7 M), 48%; in data set [7] (10^-7 M), 74%; in data set [9] (10^-7 M), 0%; in data set [10] (10^-7 M), 38%. In addition, the inhibition at 0.1 µM in data set [11] (10^-7 M) is 82%; in data set [12] (10^-7 M), 5%; in [13] (10^-7 M) it was 38%; in data set [16] (10^-7 M), 40%; in [17] (10^-7 M), 29%; in [18] (10^-7 M), 97%. Further, the figures for the inhibition at 0.1 µM in [20] (10^-7 M) and in data set [21] (10^-7 M) were 65% and 90%, respectively. The “cytotoxic action as cause of the anti-HIV action, in words” value in data set [8] was “the anti-HIV action did not come about due to a cytotoxic action”. Besides, in the data set on HIV [14], the “anti-HIV action, in words” value is given as “an anti-HIV action could be demonstrated”. Also, the “inhibition of tumour cell growth, in words” value in the data set with human tumour cells [15] is given as “the growth of the tumour cells can be inhibited depending upon the concentration”. The “ratio of IC50 C-kinase/IC50 MLC-kinase” value in data set [19] (selectivity factor calculated from the IC50 values) is given as 2.3.

Take `O=C1NC(=O)c2c1c1c3cccc(O)c3[nH]c1c1[nH]c3c(O)cccc3c21` [BE-13193C]: the “anti-tumour action, in words” value in data set [22] was “antitumour action”.

Regarding `CO[C@H]1[C@H](O)[C@@H](O)[C@H](n2c3c(Cl)cccc3c3c4c(c5c6cccc(Cl)c6[nH]c5c32)C(=O)NC4=O)O[C@@H]1CO` [rebeccamycin], in data set [22], the “anti-tumour action, in words” value is given as “anti-tumour action”. Moreover, the “inhibition of protein kinases, in words” value in the data set with protein kinases is on record as “do not inhibit protein kinases”.

Values taken from patent publication US5945440A, “Indolocarbazole imides and the use thereof” (priority 1992, dated 1999).
